Source: US5512550A, “Method for inhibiting angiogenesis with modified platelet factor-4 and cleaved platelet factor-4” (Eli Lilly and Company, priority 1995, dated 1996)
Values belong to the molecule of their own block, whether it stands above or below them. Positions of bridges follow the written chain, without caps; N, C: chain ends. Chains are numbered I, II in the order given. No end group written: not given here.

Assays:
[1] = Heparin binding (heparin affinity chromatography)
Excerpt: The eluted proteins are then contacted with a heparin affinity resin. The ordinarily skilled artisan will readily realize that this step is best achieved in a column chromatography mode. Heparin affinity columns are commercially available from some of the same vendors mentioned above. In this step, the molecules of interest, both MPF-4 or CPF-4, bind to the heparin column and are eluted using an increasing linear salt gradient. The preferred salt is NaCl, and the portion of the gradient that is preferably collected is the 0.1-2.0M portion. The more highly preferred portion of the gradient to collect is the 0.7-2.0M portion.
The C4-pool was further fractionated by heparin affinity chromatography on a Econo-pac™ 5 ml heparin-sepharose cartridge (Biorad, Richmond, Calif. 94804). The bound proteins were eluted by a linear gradient of 0 to 2.0M NaCl in phosphate buffer saline (PBS) at a flow rate of 2.0 ml/min. The proteins that eluted from the column were pooled into three fractions: (1) non-heparin binding (flow through), (2) low-affinity heparin binding (0 to 0.7M NACl), and (3) high-affinity heparin binding (0.7M to 2.0M NACl) fractions.

[2] = system: primary retinal capillary endothelial cells or bovine heart endothelial cells; experiment: Endothelial cell proliferation inhibition assay; type: cell-based; details: for IC50, inhibition of endothelial cell proliferation: endothelial cells with 20 ng/ml fibroblast growth factor, grown four days, cell count, average of 4 wells (FIG. 1); for IC50: same experiment, IC50 restated in nM; for potency of endothelial cell proliferation inhibition compared with PF-4: under identical conditions as PF-4
Experimental: Primary retinal capillary endothelial cell cultures were prepared in substantial accordance with the procedure described in Buzney et al., Retinal Vascular Endothelial Cells and Pericytes: Differential Growth Characteristics in vitro, Invest. Opthalmol. Visual Sci. 24: 470-483 (1983) and separated from contaminating cells as described in Voyta et al., Identification and Isolation of Endothelial Cells Based on their Increased Uptake of Acetylated-low density Lipoprotein, J. Cell Biol, 99: 2034-2040 (1981).
Alternatively, bovine heart endothelial cells were obtained (American Type Culture Collection; Rockville Md. 20852) for use in the assay. Irrespective of source, the endothelial cells were seeded into 24 well tissue culture plates at a cell density of 10,000 cells/well in Dulbecco's modified Eagle Medium (GIBCO; Grand Island, N.Y.) supplemented with 5% bovine serum albumin, 1% penicillin-streptomycin, 1% L-glutamine, and 20 ng/ml fibroblast growth factor. Immediately after seeding the cells, various amounts of PF-4 (Sigma Chemical Co.; St. Louis, Mo. 63178), MPF-4 , or CPF-4 (isolated as describe in the above examples) were added to individual growth wells. MPF-4 and CPF-4 were tested at final concentrations ranging from 0.001 to 1 μg/ml. For comparison, native PF-4 was tested over a range of 0.001 to 3 μg/ml, and supplemented medium alone served as the negative control. The endothelial cell cultures were allowed to grow for four days at 37° C., 5% CO2 in a humidified tissue culture incubator. The cultures were then harvested individually by trypsinization and counted using a Zm-Coulter Counter (Coulter Electronics. Inc.; Opa Locka Fla. 33054).
The results were plotted in FIG. 1, and each point on the graph represented the average of 4 data points; ie one growth well per data point.

heparin binding [1]: bind heparin
Molecule: MPF-4: N-terminally processed form of human platelet factor-4, 54 C-terminal residues beginning with Ser-17, SEQ ID NO: 1 (SQVRPRHITSLEVIKAGPHCPTAQLIATLKNGRKICLDLQAPLYKKIIKKLLES)
IC50, inhibition of endothelial cell proliferation [2]: 0.03 to 0.05 µg/mL
IC50 [2]: ~7 nM
potency of endothelial cell proliferation inhibition compared with PF-4 [2]: more potent inhibitors of endothelial cell proliferation

Molecule: PF-4: Native platelet factor-4 (Sigma Chemical Co.), tested for comparison [reference compound]
IC50, inhibition of endothelial cell proliferation [2]: 0.8 to 1 µg/mL
IC50 [2]: ~130 nM

heparin binding [1]: bind heparin
B1: CPF-4: Proteolytically cleaved, non-reduced PF-4: 16-residue chain (SEQ ID NO: 2) disulfide bonded to 54-residue chain (SEQ ID NO: 1) (protein)
chain 1: EAEEDGDLQCLCVKTT
chain 2: SQVRPRHITSLEVIKAGPHCPTAQLIATLKNGRKICLDLQAPLYKKIIKKLLES
modifications: disulfide I:10-II:20, I:12-II:36; not fully specified
IC50, inhibition of endothelial cell proliferation [2]: approximately 150 ng/ml
IC50 [2]: ~20 nM
potency of endothelial cell proliferation inhibition compared with PF-4 [2]: more potent inhibitors of endothelial cell proliferation
